Data from patent publication US12391648B2, “Pyridyloxy thioester derivative and preparation method therefor, herbicidal composition, and application” (Qingdao Kingagroot Chemical Compound Co., Ltd., priority 2018, dated 2025).

Columns and labels:
Assay in all cases: Post-emergence test experiment (Table 3, 1000 g/ha)
Assay type in all cases: in vivo
Settings in all cases: post-emergence spray, after 3 weeks, fresh weight inhibition
Galium spurium = test system: Galium spurium
From the text: (§1) The activity level standard of harmful plants destruction (i. e. growth inhibition rate) is as follows: • Level 5: the growth inhibition rate is greater than 85%; • Level 4: the growth inhibition rate is equal to or greater than 60% and less than 85%; • Level 3: the growth inhibition rate is equal to or greater than 40% and less than 60%; • Level 2: the growth inhibition rate is equal to or greater than 20% and less than 40%; • Level 1: the growth inhibition rate is equal to or greater than 5% and less than 20%; • Level 0: the growth inhibition rate is less than 5%;
(§2) The above described growth inhibition rate is fresh weight inhibition rate.
(§3) Post-emergence test experiment: Monocotyledonous and dicotyledonous weed seeds and main crop seeds (i. e. wheat, corn, rice, soybean, cotton, oilseed, millet and sorghum.) were put into a plastic pot loaded with soil. Then covered with 0.5-2 cm soil, the seeds were allowed to grow in good greenhouse environment. The test plants were treated at 2-3 leaf stage 2 weeks after sowing. The test compounds of the invention were dissolved with acetone respectively, then added with tween-80, and using 1.5 liters per hectare of an emulsible concentrate of methyl oleate as a synergist, and diluted by certain amount of water to certain concentration. The solution was sprayed to the plants with a sprayer. Then the plants were cultured for 3 weeks in the greenhouse, and the experiment result of weed controlling effect after 3 weeks was listed in tables 3-4.

Monochoria vaginalis = test system: Monochoria vaginalis
From the text: as §1, §2, §3

Abutilon theophrasti = test system: Abutilon theophrasti
From the text: as §1, §2, §3

SMILES | Activity level (growth inhibition rate) Galium spurium (Galium spurium) | Activity level (growth inhibition rate) Monochoria Vaginalis (Monochoria vaginalis) | Activity level (growth inhibition rate) Abutilon theophrasti (Abutilon theophrasti)
CSC(=O)C(Br)Oc1nc(F)c(Cl)c(N)c1Cl (stereo not drawn) [Compound 36] | 5 (Level 5: the growth inhibition rate is greater than 85%) | 5 (Level 5: the growth inhibition rate is greater than 85%) | 5 (Level 5: the growth inhibition rate is greater than 85%)
CCC(Oc1nc(F)c(Cl)c(N)c1Cl)C(=O)SC (stereo not drawn) [Compound 25] | 5 (Level 5: the growth inhibition rate is greater than 85%) | 5 (Level 5: the growth inhibition rate is greater than 85%) | 5 (Level 5: the growth inhibition rate is greater than 85%)
CSC(=O)C(Oc1nc(F)c(Cl)c(N)c1Cl)c1cccs1 (stereo not drawn) [Compound 53] | 5 (Level 5: the growth inhibition rate is greater than 85%) | 5 (Level 5: the growth inhibition rate is greater than 85%) | 5 (Level 5: the growth inhibition rate is greater than 85%)
CSC(=O)C(CN(C)C)Oc1nc(F)c(Cl)c(N)c1Cl (stereo not drawn) [Compound 46] | 5 (Level 5: the growth inhibition rate is greater than 85%) | 5 (Level 5: the growth inhibition rate is greater than 85%) | 5 (Level 5: the growth inhibition rate is greater than 85%)
CSC(=O)C(CC#N)Oc1nc(F)c(Cl)c(N)c1Cl (stereo not drawn) [Compound 44] | 5 (Level 5: the growth inhibition rate is greater than 85%) | 5 (Level 5: the growth inhibition rate is greater than 85%) | 5 (Level 5: the growth inhibition rate is greater than 85%)
CSC(=O)C(Oc1nc(F)c(Cl)c(N)c1Cl)c1ccco1 (stereo not drawn) [Compound 54] | 5 (Level 5: the growth inhibition rate is greater than 85%) | 5 (Level 5: the growth inhibition rate is greater than 85%) | 5 (Level 5: the growth inhibition rate is greater than 85%)
CCSC(=O)C(Oc1nc(F)c(Cl)c(N)c1Cl)c1ccc(C(F)(F)F)cc1 (stereo not drawn) [Compound 60] | 5 (Level 5: the growth inhibition rate is greater than 85%) | 5 (Level 5: the growth inhibition rate is greater than 85%) | 5 (Level 5: the growth inhibition rate is greater than 85%)
CSC(=O)C(CO)Oc1nc(F)c(Cl)c(N)c1Cl (stereo not drawn) [Compound 48] | 5 (Level 5: the growth inhibition rate is greater than 85%) | 5 (Level 5: the growth inhibition rate is greater than 85%) | 5 (Level 5: the growth inhibition rate is greater than 85%)
CSC(=O)C(Oc1nc(F)c(Cl)c(N)c1Cl)c1ccccc1 (stereo not drawn) [Compound 59] | 5 (Level 5: the growth inhibition rate is greater than 85%) | 5 (Level 5: the growth inhibition rate is greater than 85%) | 5 (Level 5: the growth inhibition rate is greater than 85%)
CCC(Oc1nc(Cl)c(Cl)c(N)c1Cl)C(=O)SC (stereo not drawn) [Compound 24] | 5 (Level 5: the growth inhibition rate is greater than 85%) | 5 (Level 5: the growth inhibition rate is greater than 85%) | 5 (Level 5: the growth inhibition rate is greater than 85%)
COc1ccc(C(Oc2nc(F)c(Cl)c(N)c2Cl)C(=O)SC)c(C)c1 (stereo not drawn) [Compound 62] | 5 (Level 5: the growth inhibition rate is greater than 85%) | 5 (Level 5: the growth inhibition rate is greater than 85%) | 5 (Level 5: the growth inhibition rate is greater than 85%)
CSC(=O)C(N)Oc1nc(F)c(Cl)c(N)c1Cl (stereo not drawn) [Compound 45] | 5 (Level 5: the growth inhibition rate is greater than 85%) | 5 (Level 5: the growth inhibition rate is greater than 85%) | 5 (Level 5: the growth inhibition rate is greater than 85%)
CSC(=O)C(CC(F)(F)F)Oc1nc(F)c(Cl)c(N)c1Cl (stereo not drawn) [Compound 42] | 5 (Level 5: the growth inhibition rate is greater than 85%) | 5 (Level 5: the growth inhibition rate is greater than 85%) | 5 (Level 5: the growth inhibition rate is greater than 85%)
CCC(Oc1ncc(Cl)c(N)c1Cl)C(=O)SC (stereo not drawn) [Compound 23] | 5 (Level 5: the growth inhibition rate is greater than 85%) | 5 (Level 5: the growth inhibition rate is greater than 85%) | 5 (Level 5: the growth inhibition rate is greater than 85%)
CSC(=O)C(Oc1nc(F)c(Cl)c(N)c1Cl)C(F)F (stereo not drawn) [Compound 39] | 5 (Level 5: the growth inhibition rate is greater than 85%) | 5 (Level 5: the growth inhibition rate is greater than 85%) | 5 (Level 5: the growth inhibition rate is greater than 85%)
CSC(=O)C(CCl)Oc1nc(F)c(Cl)c(N)c1Cl (stereo not drawn) [Compound 37] | 5 (Level 5: the growth inhibition rate is greater than 85%) | 5 (Level 5: the growth inhibition rate is greater than 85%) | 5 (Level 5: the growth inhibition rate is greater than 85%)
CSC(=O)C(Oc1nc(F)c(Cl)c(N)c1Cl)c1cccc(Cl)c1 (stereo not drawn) [Compound 61] | 5 (Level 5: the growth inhibition rate is greater than 85%) | 5 (Level 5: the growth inhibition rate is greater than 85%) | 5 (Level 5: the growth inhibition rate is greater than 85%)
CSC(=O)C(Oc1nc(F)c(Cl)c(N)c1Cl)c1cscn1 (stereo not drawn) [Compound 55] | 5 (Level 5: the growth inhibition rate is greater than 85%) | 5 (Level 5: the growth inhibition rate is greater than 85%) | 5 (Level 5: the growth inhibition rate is greater than 85%)
CSC(=O)C(CCCl)Oc1nc(F)c(Cl)c(N)c1Cl (stereo not drawn) [Compound 40] | 5 (Level 5: the growth inhibition rate is greater than 85%) | 5 (Level 5: the growth inhibition rate is greater than 85%) | 5 (Level 5: the growth inhibition rate is greater than 85%)
CSC(=O)C(F)Oc1nc(F)c(Cl)c(N)c1Cl (stereo not drawn) [Compound 34] | 5 (Level 5: the growth inhibition rate is greater than 85%) | 5 (Level 5: the growth inhibition rate is greater than 85%) | 5 (Level 5: the growth inhibition rate is greater than 85%)
CSC(=O)C(Cl)Oc1nc(F)c(Cl)c(N)c1Cl (stereo not drawn) [Compound 35] | 5 (Level 5: the growth inhibition rate is greater than 85%) | 5 (Level 5: the growth inhibition rate is greater than 85%) | 5 (Level 5: the growth inhibition rate is greater than 85%)
COC(C)C(Oc1nc(F)c(Cl)c(N)c1Cl)C(=O)SC (stereo not drawn) [Compound 31] | 5 (Level 5: the growth inhibition rate is greater than 85%) | 5 (Level 5: the growth inhibition rate is greater than 85%) | 5 (Level 5: the growth inhibition rate is greater than 85%)
CCn1nccc1C(Oc1nc(F)c(Cl)c(N)c1Cl)C(=O)SC (stereo not drawn) [Compound 56] | 5 (Level 5: the growth inhibition rate is greater than 85%) | 5 (Level 5: the growth inhibition rate is greater than 85%) | 5 (Level 5: the growth inhibition rate is greater than 85%)
CSC(=O)C(Oc1nc(F)c(Cl)c(N)c1Cl)c1cn(C)nc1C (stereo not drawn) [Compound 57] | 5 (Level 5: the growth inhibition rate is greater than 85%) | 5 (Level 5: the growth inhibition rate is greater than 85%) | 5 (Level 5: the growth inhibition rate is greater than 85%)
COC(Oc1nc(F)c(Cl)c(N)c1Cl)C(=O)SC (stereo not drawn) [Compound 50] | 5 (Level 5: the growth inhibition rate is greater than 85%) | 5 (Level 5: the growth inhibition rate is greater than 85%) | 5 (Level 5: the growth inhibition rate is greater than 85%)
